Measured values published in ChEMBL document CHEMBL1136805, “Nitroaryl phosphoramides as novel prodrugs for E. coli nitroreductase activation in enzyme prodrug therapy” (J Med Chem, 2003).

Tests used:
[1] = tested on: SK-OV-3; experiment: Inhibitory activity against SKOV3 (human ovarian carcinoma) cell line without Escherichia coli nitroreductase combination after 18 hours drug exposure; assay type: functional, cell-based
[2] = Inhibitory activity against V79 (chinese hamster fibroblast) cell line with Escherichia coli nitroreductase combination after 72 hours drug exposure; assay type: functional, cell-based, Cricetulus griseus
[3] = Inhibitory activity against V79 (chinese hamster fibroblast) cell line without Escherichia coli nitroreductase combination after 72 hours drug exposure; assay type: functional, cell-based, Cricetulus griseus
[4] = Ratio of the activity in absence to that of presence of Escherichia coli nitroreductase V79 (chinese hamster fibroblast) cell line; assay type: functional
[5] = Ratio of the activity in absence to that of presence of Escherichia coli nitroreductase in SKOV3 (human ovarian carcinoma) cell line; assay type: functional
[6] = tested on: SK-OV-3; experiment: Inhibitory activity against SKOV3 (human ovarian carcinoma) cell line with Escherichia coli nitroreductase combination after 18 hours drug exposure; assay type: functional, cell-based; settings: SK-OV-3, 18 h
[7] = Inhibitory activity against V79 (chinese hamster fibroblast) cell line without Escherichia coli nitroreductase combination after 1 hour drug exposure; assay type: functional, cell-based, Cricetulus griseus
[8] = Inhibitory activity against V79 (chinese hamster fibroblast) cell line with Escherichia coli nitroreductase combination after 1 hour drug exposure; assay type: functional, cell-based, Cricetulus griseus
[9] = Ratio of Kcat to that of Km was determined; assay type: ADME
[10] = Kcat was determined; assay type: ADME
[11] = tested on: SK-OV-3; experiment: Inhibitory activity against SKOV3 (human ovarian carcinoma) cell line infected at lower infection rate of 10 pfu/cell with Escherichia coli nitroreductase combination after 18 hours drug exposure; assay type: functional, cell-based; settings: SK-OV-3, 18 h
[12] = Ratio of the activity in absence to that of presence of the Escherichia coli nitroreductase in SKOV3 (human ovarian carcinoma) cell line infected at lower infection rate of 10 pfu/cell; assay type: functional

Structure (SMILES) | IC50 ([1]; Homo sapiens, SK-OV-3, 18 h) [µM] | IC50 [2] [nM] | IC50 [3] [µM] | Ratio [4] | Ratio [5] | IC50 [6] [µM] | IC50 [7] [µM] | IC50 [8] [nM] | k cat/Km [9] [M⁻¹ s⁻¹] | k cat [10] [s⁻¹] | IC50 [11] [µM] | Ratio [12] | 1/2Kcat/Km [9] [M⁻¹ s⁻¹] | IC50 ([1]; sk-ov-3) [µM]
O=[N+]([O-])c1ccc2c(c1)NP(=O)(N(CCCl)CCCl)OC2 (stereo not drawn) | 550 | 3000 | > 100 | >33 | 10 | 55 | – | – | – | – | – | – | – | –
O=[N+]([O-])c1cccc([C@H]2CCNP(=O)(N(CCCl)CCCl)O2)c1 (stereo partly drawn) | 680 | 29 | 832 | – | 145 | 4.7 | > 100 | 340 | – | – | – | – | – | –
O=[N+]([O-])c1cccc([C@@H]2CCNP(=O)(N(CCCl)CCCl)O2)c1 (stereo partly drawn) | > 1000 | 27 | 608 | – | >200 | 5 | > 100 | 170 | – | – | – | – | – | –
NP(=O)(OCc1ccc([N+](=O)[O-])cc1)N(CCCl)CCCl (stereo not drawn) | > 10000 | 0.4 | 67 | – | >833 | 1.2 | > 100 | 10 | 71949 | 14 | 6.2 | >161 | – | –
NC(=O)c1cc(N2CC2)c([N+](=O)[O-])cc1[N+](=O)[O-] [TRETAZICAR] | > 1000 | 36 | 254 | – | >213 | 4.7 | > 100 | 310 | – | 6.6 | 52 | 12 | 3746 | 625
